Results on one molecule are retold here after ChEMBL document CHEMBL1121995, “Crystal structure and anti herpes simplex virus activity of 2,2'-anhydro-1-beta-D-arabinofuranosylthymine” (1982).

Common to all, as to assay type: functional
In test [1] the test system is Vero. Briefly: Percentage inhibition against Vero cells at a concentration of 200 uM. Particulars: Chlorocebus sabaeus.
The subject of test [2] is Vero. Briefly: Percentage inhibition against Vero cells at a concentration of 600 uM. The settings on record: Chlorocebus sabaeus.
The subject of test [3] is Vero. Briefly: Dose of compound required to reduced HSV-1 induced cytopathogenicity in vero cells. The settings on record: Chlorocebus sabaeus, read-out: ED50 (the source's name). For orientation: Damage to the host cells serves as the signal in cytopathic effect assays.

Take `Cc1cn(C2O[C@H](CO)[C@@H](O)[C@@H]2O)c(=O)n(C)c1=O` (stereo partly drawn): the inhibition (as a rule, the percentage by which the read-out fell short of the control) at 200 µM in the test with Vero [1] came out at 40%. Also, at 600 µM the inhibition with Vero [2] was 59%. In addition, the EC50 in the test on Vero [3] was 0.14 µM.
